{"source": "patent US20260231940A1", "about": "“METHOD FOR ATTRACTING COCKROACHES, COCKROACH ATTRACTANT, AND METHOD FOR CONTROLLING COCKROACHES” (SUMITOMO CHEMICAL COMPANY, LIMITED, priority 2023, published 2026)", "assay_type_in_all_cases": "in vivo", "key": {"Blattella germanica [1]": {"system": "Blattella germanica", "assay": "Test Example 4: choice test, methoprene-applied filter paper uneven sheet", "conditions": "1 g methoprene per 1 m^2, four hours after release, total of eight repetitions", "from_the_text": "(§1) FIG. 3 is a planar view schematically illustrating the test space used in Test Examples 1 to 5. […] Depending on the test system, a container 2 containing solid feed for MF mouse rats as bait and a container 3 containing water were placed between these two uneven sheets 1.\n(§2) A sheet formed from a filter paper (ADVANTEC qualitative filter paper No. 2, manufactured by Toyo Roshi Kaisha, Ltd.) wherein the sheet was a triangular wave shape in its cross-sectional shape as shown in FIG. 2(b) was used. Specifically, an uneven sheet (a corrugated sheet) the depth of the concave portion and the height of the convex portion of which were each 17 mm, and where the concave portions and the convex portions were formed in a corrugated shape so that the angle at the vertices of the concave portions might be 60° was prepared.\n(§3) As the uneven sheets 1 placed in the test space 20, all those being 10 cm×16 cm in size were used, and they were placed so that the ridge lines of the corrugations of the uneven sheets 1 were parallel to the lengthwise direction of the test space 20. […]\n(§4) In the test space 20 prepared as described above, Blattella germanica (30 individuals in total) were released, and four hours later, the number of individuals settled in each uneven sheet 1 and the number of individuals present in the test space 20 other than the uneven sheets 1 were counted. […]"}, "Blattella germanica [2]": {"system": "Blattella germanica", "assay": "Test Example 3: choice test, bistrifluron-applied filter paper uneven sheet", "conditions": "1 g bistrifluron per 1 m^2, four hours after release, total of four repetitions", "from_the_text": "as §1, §2, §3, §4"}, "Blattella germanica [3]": {"system": "Blattella germanica", "assay": "Test Example 5: choice test, hydroprene-applied filter paper uneven sheet", "conditions": "500 mg hydroprene per 1 m^2, 24 hours after release, total of eight repetitions", "from_the_text": "as §1, §2, §3\nIn the test space 20 prepared as described above, Blattella germanica (30 individuals in total) were released, and 24 hours later, the number of individuals settled in each uneven sheet 1 and the number of individuals present in the test space 20 other than the uneven sheets 1 were counted. […]"}, "Cimex lectularius": {"system": "Cimex lectularius", "assay": "Test Example 1: choice test, chemical-applied versus blank uneven sheet", "conditions": "1 g pyriproxyfen per 1 m^2, four days after release, total of two repetitions", "method": "(§5) Specifically, an uneven sheet (a corrugated sheet) the depth of the concave portion and the height of the convex portion of which were each 10 mm, and where the concave portions and the convex portions were formed in a corrugated shape so that the angle at the vertices of the concave portion might be 53° was prepared. The uneven sheet was used in Test Example 1 and Test Example 2.\nas §1\n(§6) As the uneven sheets 1 placed in the test space 20, all those being 10 cm×10 cm in size were used, and they were placed so that the ridge lines of the corrugations of the uneven sheets 1 were parallel to the lengthwise direction of the test space 20.\n(§7) As test insects, Periplaneta americana nymphs, Cimex lectularius, Dermanyssus gallinae, Sitophilus zeamais, and Plodia interpunctella larvae were used. Cimex lectularius and Dermanyssus gallinae were released into each test space 20 where feed and water had not been placed and only corrugated sheets 1 had been placed. Periplaneta americana nymphs were released into test space 20 where containers 2 and 3 containing feed and water respectively placed between the facing uneven sheets 1 as shown in FIG. 3. Sitophilus zeamais and Plodia interpunctella larvae were released into each test space 20 where feed and water had not been placed and brown rice had been placed on uneven sheets 1 as a hiding place for the test insects.\n(§8) Four days after releasing the insects, the number of individuals settled in each uneven sheet 1 and the number of individuals present in the test space 20 other than the uneven sheets 1 were counted. The above test was conducted in two repetitions."}, "Dermanyssus gallinae": {"system": "Dermanyssus gallinae", "assay": "Test Example 1: choice test, chemical-applied versus blank uneven sheet", "conditions": "1 g pyriproxyfen per 1 m^2, four days after release, total of two repetitions", "method": "as §5, §1, §6, §7, §8"}, "[4]": {"system": "Periplaneta americana nymphs", "assay": "Test Example 1: choice test, chemical-applied versus blank uneven sheet", "method": "as §5, §1, §6, §7, §8"}, "[5]": {"system": "Plodia interpunctella larvae", "assay": "Test Example 1: choice test, chemical-applied versus blank uneven sheet", "conditions": "1 g pyriproxyfen per 1 m^2, four days after release, total of two repetitions", "method": "as §5, §1, §6, §7, §8"}, "Sitophilus zeamais": {"system": "Sitophilus zeamais", "assay": "Test Example 1: choice test, chemical-applied versus blank uneven sheet", "conditions": "1 g pyriproxyfen per 1 m^2, four days after release, total of two repetitions", "method": "as §5, §1, §6, §7, §8"}, "Blattella germanica [6]": {"system": "Blattella germanica", "assay": "Test Example 2: choice test, pyriproxyfen amount series on uneven sheet", "conditions": "four hours after release, total of four repetitions; for Number of individuals Uneven sheet (chemical applied): 120 released", "method": "as §5, §1\nAs the uneven sheets 1 placed in the test space 20, all those being 10 cm×16 cm in size were used, and they were placed so that the ridge lines of the corrugations of the uneven sheets 1 were parallel to the lengthwise direction of the test space 20. Additionally, containers 2 and 3 containing feed and water respectively were placed between the facing uneven sheets 1.\nIn the test space 20 prepared as described above, Blattella germanica (30 individuals in total) were released, and four hours later, the number of individuals settled in each uneven sheet 1 and the number of individuals present in the test space 20 other than the uneven sheets 1 were counted. The above test was conducted in four repetitions."}, "[7]": {"conditions": "60 released, brown rice on sheets"}}}
{"smiles": "COC(C)(C)CCC[C@H](C)C/C=C/C(C)=C/C(=O)OC(C)C", "note": "(racemic) [methoprene]", "values": [{"measurement": "Number of individuals Uneven sheet (chemical applied)", "setting": "Blattella germanica [1]; 240 released", "result": 152}, {"measurement": "Hiding rate (Chemical applied / Blank)", "setting": "Blattella germanica [1]", "result": 2.92}]}
{"smiles": "O=C(NC(=O)c1c(F)cccc1F)Nc1cc(C(F)(F)F)cc(C(F)(F)F)c1Cl", "note": "[bistrifluron]", "values": [{"measurement": "Number of individuals Uneven sheet (chemical applied)", "setting": "Blattella germanica [2]; 120 released", "result": 71}, {"measurement": "Hiding rate (Chemical applied / Blank)", "setting": "Blattella germanica [2]", "result": 2.29}]}
{"smiles": "CCOC(=O)/C=C(C)/C=C/CC(C)CCCC(C)C", "note": "(centres unmarked) [hydroprene]", "values": [{"measurement": "Number of individuals Uneven sheet (chemical applied)", "setting": "Blattella germanica [3]; 240 released", "result": 160}, {"measurement": "Hiding rate (Chemical applied / Blank)", "setting": "Blattella germanica [3]", "result": 2.13}]}
{"smiles": "CC(COc1ccc(Oc2ccccc2)cc1)Oc1ccccn1", "note": "(centres unmarked) [pyriproxyfen]", "values": [{"measurement": "Number of individuals Uneven sheet (chemical applied)", "setting": "Cimex lectularius; 30 released, no feed or water", "result": 12}, {"measurement": "Hiding rate (Chemical applied / Blank)", "setting": "Cimex lectularius", "result": 0.75}, {"measurement": "Number of individuals Uneven sheet (chemical applied)", "setting": "Dermanyssus gallinae; 59 released, no feed or water", "result": 17}, {"measurement": "Hiding rate (Chemical applied / Blank)", "setting": "Dermanyssus gallinae", "result": 0.94}, {"measurement": "Number of individuals Uneven sheet (chemical applied)", "setting": "[4]; Periplaneta americana nymphs, 1 g pyriproxyfen per 1 m^2, four days after release, 60 released, total of two repetitions, feed and water placed", "result": 39}, {"measurement": "Hiding rate (Chemical applied / Blank)", "setting": "[4]; Periplaneta americana nymphs, 1 g pyriproxyfen per 1 m^2, four days after release, total of two repetitions", "result": 1.86}, {"measurement": "attracting effect", "setting": "[4]; conclusion from Table 1: Periplaneta americana nymphs versus the four other test species", "result": "specific to cockroaches"}, {"measurement": "Number of individuals Uneven sheet (chemical applied)", "setting": "[5]; [7]", "result": 23}, {"measurement": "Hiding rate (Chemical applied / Blank)", "setting": "[5]", "result": 0.62}, {"measurement": "Number of individuals Uneven sheet (chemical applied)", "setting": "Sitophilus zeamais; [7]", "result": 21}, {"measurement": "Hiding rate (Chemical applied / Blank)", "setting": "Sitophilus zeamais", "result": 0.64}, {"measurement": "Number of individuals Uneven sheet (chemical applied)", "setting": "Blattella germanica [6]; 10 mg/m^2 pyriproxyfen", "result": 78}, {"measurement": "Hiding rate (Chemical applied / Blank)", "setting": "Blattella germanica [6]; 10 mg/m^2 pyriproxyfen", "result": 1.95}, {"measurement": "Number of individuals Uneven sheet (chemical applied)", "setting": "Blattella germanica [6]; 100 mg/m^2 pyriproxyfen", "result": 70}, {"measurement": "Hiding rate (Chemical applied / Blank)", "setting": "Blattella germanica [6]; 100 mg/m^2 pyriproxyfen", "result": 1.52}, {"measurement": "Number of individuals Uneven sheet (chemical applied)", "setting": "Blattella germanica [6]; 500 mg/m^2 pyriproxyfen", "result": 98}, {"measurement": "Hiding rate (Chemical applied / Blank)", "setting": "Blattella germanica [6]; 500 mg/m^2 pyriproxyfen", "result": 5.44}, {"measurement": "Number of individuals Uneven sheet (chemical applied)", "setting": "Blattella germanica [6]; 1000 mg/m^2 pyriproxyfen", "result": 91}, {"measurement": "Hiding rate (Chemical applied / Blank)", "setting": "Blattella germanica [6]; 1000 mg/m^2 pyriproxyfen", "result": 3.25}, {"measurement": "Number of individuals Uneven sheet (chemical applied)", "setting": "Blattella germanica [6]; 2000 mg/m^2 pyriproxyfen", "result": 67}, {"measurement": "Hiding rate (Chemical applied / Blank)", "setting": "Blattella germanica [6]; 2000 mg/m^2 pyriproxyfen", "result": 1.40}, {"measurement": "Number of individuals Uneven sheet (chemical applied)", "setting": "Blattella germanica [6]; 5000 mg/m^2 pyriproxyfen", "result": 71}, {"measurement": "Hiding rate (Chemical applied / Blank)", "setting": "Blattella germanica [6]; 5000 mg/m^2 pyriproxyfen", "result": 1.54}]}
